# Test: method code SF-HPLC, from DOI: 10.1002/jps.2600750811, PMID: 3772750
# Settings: not given
row,Compound,logP
1,CCC(C(=O)OCc1ccccc1)C(COC(=O)Cc1ccccc1)Cc1cncn1C (stereo unspecified),4
2,CC[C@H](C(=O)OCc1ccc(Cl)cc1)[C@H](COC(=O)c1ccccc1)Cc1cncn1C,4.9
3,CC[C@H](C(=O)OCc1ccccc1)[C@H](COC(=O)c1ccccc1)Cc1cncn1C,4.37
4,CC[C@H](C(=O)OCc1ccccc1)[C@H](COC(=O)c1cccnc1)Cc1cncn1C,3.05

# Same assay, conditions: pH 7.4
row,Compound,logD
1,CCCCCC(=O)OCC(Cc1cncn1C)C(CC)C(=O)OCc1ccccc1 (stereo unspecified),4.6
2,CC[C@H](C(=O)OCc1ccc(C)cc1)[C@H](COC(=O)C(C)(C)C)Cc1cncn1C,4.4
3,CC[C@H](C(=O)OCc1ccc(C)cc1)[C@H](COC(C)=O)Cc1cncn1C,3.16
4,CCCC(=O)OC[C@H](Cc1cncn1C)[C@H](CC)C(=O)OCc1ccc(C)cc1,4.19
5,CCCC(=O)OCC(Cc1cncn1C)C(CC)C(=O)OCc1ccccc1 (stereo unspecified),3.63
6,CC[C@H](C(=O)OCc1ccccc1)[C@H](COC(=O)c1cccc(Cl)c1)Cc1cncn1C,4.93
7,CC[C@H](C(=O)OCc1ccc(C)cc1)[C@H](COC(=O)c1ccccc1)Cc1cncn1C,4.7

# — the SangsterLogP compilation
